Laboratory results: patent US11726082B2, “Screening method of drug candidates for treating disease using interaction between calcium and phosphatidylinositol phosphate” (Gachon University of Industry—Academic Cooperation …, priority 2017, dated 2023)
“Also recorded” adds a separate entry of the source. One block for each compound: values may come before it.

Experiments:
[1] = biological target: T1, PH domain of the purified Akt protein (Homo sapiens, UniProt P31749); assay: ITC of binding of PH domain of purified Akt protein to phospholipids; conditions: increase of the calcium concentration
T1 construct: His6 (C); made in house; host or cells: E. coli BL21 (DE3), pET28a vector
T1 sequence (P31749 1-144): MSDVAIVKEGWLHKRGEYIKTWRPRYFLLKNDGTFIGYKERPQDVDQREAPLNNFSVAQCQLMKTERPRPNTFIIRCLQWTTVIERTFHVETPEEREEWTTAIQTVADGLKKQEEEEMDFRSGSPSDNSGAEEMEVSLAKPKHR
Description: (§1) Particularly, a protein solution was prepared by suspending a protein in 10 mM HEPES (pH 7.0). Phospholipid related ligand was titrated in the protein solution at 25° C. by using iTC200 micro calorimetry system (MicroCal Inc., USA), and the generated graph was corrected using Origin software (MicroCal Inc., USA). At this time, the phospholipid related ligand was prepared in the form of liposome by mixing POPC (1-palmitoyl-2-oleoyl-sn-glycero-3-phosphocholin) chloroform solution and POPS (1-palmitoyl-2-oleoyl-sn-glycero-3-phosphoserine), PI(3,4)P2 (1,2-dipalmotoyl-sn-glycero-3-phosphatidylinositol-3,4-[…]), PI(4,5)P2 (1,2-dipalmotoyl-sn-glycero-3-phosphatidylinositol-4,5-trisphosphate) or PI(3,4,5)P3 (1,2-dipalmotoyl-sn-glycero-3-phosphatidylinositol-3,4,5-trisphosphate) at the molar ratio of 80:20. The organic solvent was eliminated. The organic solvent was removed and a single layer lamellar was produced in HEPES (pH 7.0) using phospholipids.

PH domain of Akt protein = biological target: T2, PH domain of Akt protein (Homo sapiens, UniProt P31749); assay: Protein-lipid binding assay (PIP-strips) with PH domain of Akt protein; conditions: calcium 0, 0.05 or 0.1 mM
T2 construct: His6 (C); made in house; host or cells: E. coli BL21 (DE3), pET28a vector
T2 sequence (P31749 1-144): as above
Description: E. coli BL21 (DE3) cells were transfected with a vector containing the PH domain of Akt protein, and the cells were cultured in 50 Ml of LB medium supplemented with 50 μg/Ml of kanamycin. The culture was performed at 37° C. for 8 hours. Upon completion of the culture, the cells were transferred into a 25° C. agitation incubator. The cells were cultured until OD600 reached 0.6 to 1.0, and then 1 mM IPTG (isopropyl-β-D-1-thiogalactopyranoside) was added thereto. 18 hours after the addition of IPTG, centrifugation was performed at 7,000×g at 4° C. for 10 minutes to obtain cells. Sonication equilibrium buffer (150 mM NaCl, 50 mM Tris-HCl, pH 7.6) was added to the obtained cells. The cells added with the sonication equilibrium buffer were lysed by sonication. The PH domain of Akt protein was purified from the cell lysate by […] using nickel-nitrilotriacetic acid and HiLoad Superdex-200 column (GE Healthcare life science, USA). The purity of the purified protein was examined by SDS-PAGE (sodium dodecyl sulfate polyacrylamide gel electrophoresis).
Particularly, the analysis was performed by using membrane-immobilized lipid strips (PIP-strips, Echelon Biosciences Inc., USA). […]

Akt protein [2] = assay: Western blotting of Akt protein phosphorylation in insulin-treated HepG2 cells; format: cell-based, human; conditions: verapamil 0, 5, 10 or 100 nM, with or without insulin
Description: First, male C57BL/6 mice at 8 weeks were divided into the fasted group wherein the mice were fasted for 16 hours and the refed group wherein the mice were fasted for 16 hours and then fed for 4 hours. Each group was sub-divided into the high fat diet group (HFD) and the normal diet group (chow). The liver cells were extracted from the raised mice by the same manner and under the same conditions as described in Example 1. The extracted liver cells were lysed in a lysis buffer containing phosphatase (Sigma-Aldrich, USA) and protease inhibitor (Sigma-Aldrich, USA). Proteins extracted from 2 to 3 mg of the liver tissue were homogenized by using a tissue homogenizer (TissuLyser, Qiagen, USA) for 1.5 minutes at a frequency of 1/30 sec. The homogenized lysate was centrifuged at 12,000 rpm for 15 minutes and the supernatant was obtained. The amount of the extracted protein was quantified by using a protein assay kit (Bio-Rad Laboratories, USA), and at this time BSA was used as a standard sample. 3 mg of the protein was mixed with 6× loading buffer, followed by electrophoresis using 10% SDS-PAGE gel. The electrophoresed protein was transferred onto a polyvinylidene fluoride (PVDF) membrane by using a transfer buffer at 4° C. with 120 V for 1.5 hours. The PVDF membrane on which the protein was transferred was pretreated with a blocking buffer prepared by mixing 5% skim milk with TBS buffer (TBS-T, pH 7.6) supplemented with Tween 20 for 30 minutes, and the membrane was washed with TBS-T. The washed membrane was added with the antibody against Akt (Cell Signaling Technology, USA), Akt(T308) (Cell Signaling Technology, USA), Akt(S473) (Cell Signaling Technology, USA), FOXO3A (Cell Signaling Technology, USA), FOXO3A(S253) (Cell Signaling Technology, USA), GSK-3β (Cell Signaling Technology, USA) or GSK-3β(S9) (Cell Signaling Technology, USA) protein as a primary antibody, followed by reaction at 4° C. for 12 hours. At this time, the antibody against actin (Santa Cruz Biotechnology, USA) protein was used for the control group. Upon completion of the reaction, the secondary antibody corresponding to the primary antibody was added thereto, followed by reaction at room temperature for 30 minutes. The PVDF membrane was washed with TBS-T buffer three times. The washed PVDF membrane was added with ECL solution (Thermo Scientific, USA), followed by image observation.
To investigate the changes in insulin sensitivity when insulin was added to the fatty liver cell model constructed in vitro, the phosphorylations of those proteins that were involved in insulin signal transduction were examined. PA was added to the human HepG2 cells prepared in Example 3, followed by reaction for 24 hours. […]

[3] = system: cells having an increased intracellular calcium concentration; assay: Calcium concentration in cells having an increased intracellular calcium concentration; format: cell-based; conditions: cells having an increased intracellular calcium concentration treated with verapamil
[4] = Protein-lipid binding assay with PKCβ protein C2 domain, PI(4,5)P2; conditions: calcium 0, 0.05 or 0.1 mM
Description: (§2) Particularly, the analysis was performed by using membrane-immobilized lipid strips (PIP-strips, Echelon Biosciences Inc., USA). At this time, the membrane was loaded with LPA (lysophosphatidic acid), LPC (lysophosphatidylcholine), PI (phosphatidylinositol), PE (phosphatidylethanolamine), PC (phosphatidylcholine), S1P (sphingosine 1-phosphate), PA (phosphatidic acid) or PS (phosphatidylserine) at the concentration of 100 pmol, to which calcium was added at the concentration of 0, 0.05 or 0.1 mM. Each membrane was pre-treated with a blocking buffer [fatty acid free 3% BSA (bovine serum albumin), 0.1% (v/v) Tween 20 and TBS (Tris-buffered saline), pH 7.5] at room temperature for 30 minutes. The PH domain of Akt protein purified in Example <7-1> was suspended in a blocking buffer at the concentration of 3.5 mg/Ml. The suspended protein was reacted with the membrane-immobilized lipid strip at room temperature for 30 minutes. The protein bound with lipid was identified by using the PH domain antibody.
(§3) To investigate whether or not the binding of the PKCβ protein C2 domain purified in Example <8-1> to PI(4,5)P2 or PI(3,4,5)P3 was inhibited by calcium, protein lipid binding assay and ITC were performed. […]

CHO cells = assay: Migration of mCherry-tagged PH or C2 domain to the cell membrane, fluorescence microscopy; format: cell-based
Text: First, the PH domain of Akt1 protein or C2 domain of PKCβ protein was obtained by PCR using the primers consisting of the nucleotide sequences represented by […]. The obtained PCR product was cloned in pmCherry-C1 vector (Takara Clontech, Japan) by the conventional cloning method. CHO cells were transfected with the prepared vector by using lipofectamine according to the manufacturer's protocol. The transfected cells were selected by using blastidicin. Then, mCherry positive cells were confirmed by flow cytometry.
PMA at the concentration of 100 nM, ionomycin at the concentration of 10 μM or insulin at the concentration of 100 nM was added to the cells expressing the PH domain of Akt1 protein or the C2 domain of PKCβ protein and the location of the expressed protein was confirmed by fluorescence microscopy.

[5] = Protein-lipid binding assay with PKCβ protein C2 domain, PI(3,4,5)P3; conditions: calcium 0, 0.05 or 0.1 mM
Description: as §2, §3

[6] = ITC of PKCβ protein C2 domain with PI(3,4,5)P3 liposome; format: binding
Description: as §1
In the meantime, in ITC, the phospholipid related ligand was prepared in the form of liposome by mixing POPC chloroform solution and PI(3,4,5)P3 at the molar ratio of 80:20. Then, ITC was performed by the same manner under the same conditions as described in Example <7-3> except that the PKCβ protein C2 domain or D187/193A, the C2 domain mutant, was used.

Akt protein [7] = assay: Western blot of Akt activation in HepG2 cells transfected with C2-Akt fusion protein or wild type Akt and PI3K; format: cell-based, human; conditions: increase of calcium concentration (PMA 0, 10, 50 or 100 nM, ionomycin 20 μM, 1 hour)
Text: First, the C2 domain of PKCβ protein and Akt protein (SEQ. ID. NO: 15) were obtained by PCR using the primers consisting of the nucleotide sequences represented by SEQ. ID. NO: 9˜SEQ. ID. The obtained PCR product was cloned in pEGFP-C2 vector by the conventional cloning method, resulting in the construction of a vector expressing the C2 domain/Akt protein fusion protein (SEQ. ID. NO: 17) (C2-Akt fusion protein). At this time, as the control group, a vector expressing the wild type Akt protein containing the PH domain was prepared.
HepG2 cells were transfected with the vector expressing the C2-Akt fusion protein constructed above along with the vector expressing PI3K protein by using lipofectamine according to the manufacturer's protocol. The transfected cells were treated with PMA at the concentration of 0, 10, 50 or 100 nM ionomycin at the concentration of 20 μM, followed by reaction for 1 hour. Western blot analysis was performed with the cells above. […]

Compound: [Ca+2] [calcium]
- binding of PH domain of Akt protein to PI(3,4)P2, PI(4,5)P2, PI(3,4,5)P3 or PS [1]: inhibited
- binding of PH domain of Akt protein to PI(3,4)P2 or PI(3,4,5)P3 (PH domain of Akt protein): inhibited

Compound: COc1ccc(CCN(C)CCCC(C#N)(c2ccc(OC)c(OC)c2)C(C)C)cc1OC (stereo not drawn) [verapamil]
- phosphorylation of Akt protein (Akt protein [2]): increased
- increased calcium concentration [3]: inhibited; also recorded: reduced

- binding to PI(4,5)P2 [4]: strongly bound; also recorded: promoted
- binding to PI(3,4,5)P3 [5]: strongly bound; also recorded: promoted
- binding to PI(3,4,5)P3 ([6]; absence of calcium): not induced
- binding to PI(3,4,5)P3 ([6]; increased calcium concentration): combined
- binding to PI(3,4,5)P3 ([6]; increased calcium concentration, listed as PKCβ protein C2 domain): strongly bound
Compound: C2 domain of PKCβ protein: C2 domain of PKCβ protein (SEQ. ID. NO: 14)
- migration to the cell membrane (CHO cells; addition of insulin 100 nM): did not migrate
- migration to the cell membrane (CHO cells; increased intracellular calcium concentration (PMA 100 nM, ionomycin 10 μM)): migrated; also recorded: promoted

Compound: wild type Akt protein: wild type Akt protein containing the PH domain, control
- Akt protein activation by PI3K (Akt protein [7]): inhibited
